In patent publication US20250235418A1, “Butyrate Analogues and Methods of Use for HIF Stabilization and Treatment of Bowel Disease” (THE REGENTS OF THE UNIVERSITY OF COLORADO, A BODY CORPORATE, priority 2022, published 2025):
“Also recorded” adds a separate entry of the source. Read-outs that look alike come from different tables or passages of the source. Blank lines part the entries; values can stand above or below the compound they belong to.

Legend:
PHD2181-402 [1] = biological target: T1, PHD2181-402 (Homo sapiens, UniProt Q9GZT9); experiment: bioluminescent succinate detection assay of recombinant PHD2181-402 activity/inhibition; format: biochemical; details: for fold less effective at inhibiting PHD2181-402 than butyrate: compared with butyrate
T1 construct: made in house
From the text: To pinpoint if butyrate inhibits PHDs directly, we expressed recombinant PHD derived from the human PHD2 sequence. There are three human PHDs: PHD1, PHD2, and PHD3, with PHD2 being the most abundant and expressed in the majority of tissues, the most important regulator of HIF, particularly HIF-1α, and the only PHD that is embryonically lethal when deleted. PHD1 is exclusively localized to the nucleus, whereas PHD2 is mainly cytoplasmic, and PHD3 is both. […] Sequence comparisons and modeling studies indicate that the PHD2 active site is highly conserved among the PHDs.
IC50s depend on exact experimental conditions, making direct comparisons and global applications difficult.

PHDs = details: range across studies, assay conditions vary; read-out: reported IC50s; cited from earlier work
[2] = system: HIF-1α / PHDs in murine colon tissue; experiment: rectal gavage of butyrate or IOX2 in antibiotic SCFA-depleted mice; format: in vivo; details: 1 h, 100 mM butyrate, 1.5 mM IOX2
[3] = system: PHD (2-OG accumulation) in T84 IECs; experiment: 2-OG levels in T84 cells as biomarker of PHD inhibition; format: cell-based; details: 3 h, 10 mM butyrate, 30 μM IOX2
Protocol: (B) 2-OG concentrations in T84 cells treated with 10 mM butyrate with or without 1 mM MCPA or 30 μM IOX2 for 3 h
The relationship between butyrate and HIF, were examined whether butyrate influences PHD activity by monitoring 2-OG levels. […] In this, we considered such 2-OG accumulation as a metabolic biomarker of PHD inhibition (FIG. 3A).

HIF1α in caco-2 cells = experiment: HIF1α MSD assay and immunoblot in caco-2 cells; format: cell-based; details: for BNIP3 immunoblot over time: c2bbe cell lysates, various timepoints
Protocol: (A) Structures of butyrate derivatives investigated in initial screen for HIF stabilization. […] (D) Dose response study of HIF1a accumulation in T84 cells treated with decreasing concentrations of MBA and BA for 6 h.
(A) Immunoblots of HIF1a protein over time after exposure of T84 cells to 5 mM BA and MBA. (B) Mesoscale assay of HIF1a protein over time in caco-2 cells treated with 5 mM MBA compared to veh. […] Data are presented as mean+S.E.M, *p<0.05, **p<0.01, ***p<0.001.
HIF1a Mesoscale assay of BA derivatives investigated in caco-2 (A) and T84 (B) intestinal epithelial cells (5 mM, 6 h), identifying MBA as a promising candidate in HIF1a stabilization (Veh=HBSS+).
(§1) Endogenous and non-endogenous butyrate derivatives with specifically chosen functional groups at different positions within the small molecule and assess their effects on HIF stabilization (FIG. 21A). To study a small library of butyrate derivatives we employed an electrochemiluminescence based assay to quantify HIF1α levels using the Meso Scale Discovery (HIF1α MSD assay, http://www.mesoscale.com) technology. Similar to the sandwich enzyme-linked immunosorbent assay (ELISA), this technology captures and detects HIF1α protein using two specific antibodies but utilizes electrochemiluminescence-based signal generation and detection. Using lysates from intestinal epithelial cells (IECs) caco-2 and T84 exposed to a physiological relevant concentration of 5 mM butyrate derivatives for 4h, this assay was employed to determine HIF1α protein concentration. A bona-fide and potent PHD2 inhibitor (IOX4) was used to stabilize HIF1α as a positive control. Various butyrate derivatives increased HIF1α relative concentration in both cell lines compared to low signals detected in untreated lysates. […] We decided to focus on this interesting butyrate derivative for further studies.
(§2) To elucidate the effectiveness of MBA to stabilize HIF1α over time and possibly shine light on how quickly it can be metabolized in-vitro, time-course studies where performed between BA and MBA, IOX4 was used as a positive control. […] Employing the HIF1α MSD assay, we screened for various timepoints in caco-2 cell lysates exposed to MBA (5 mM). […] BNIP3 is involved in cell survival and is a known HIF1α target that is induced through chemical stabilization of HIF or hypoxia. BNIP3 promoter comprises a functional hypoxia response element (HRE) and can be activated by HIF1α.[5] Parallel to our HIF stabilization time course studies, we wanted to assess the transcriptional activity of the stabilized protein over time.

HIF1α in T84 cells = experiment: HIF1α immunoblot in T84 cells (MBA vs BA); format: cell-based; details: for HIF1α stabilization over time (immunoblot): 5 mM BA and MBA, IOX4 positive control
Protocol: (A) Structures of butyrate derivatives investigated in initial screen for HIF stabilization. Immunoblot of HIF1a protein levels in Caco-2 cells (B) and T84 cells (C) exposed to veh (HBSS+), […], or 5 mM butyrate derivatives for 6h. (D) Dose response study of HIF1a accumulation in T84 cells treated with decreasing concentrations of MBA and BA for 6 h.
(A) Immunoblots of HIF1a protein over time after exposure of T84 cells to 5 mM BA and MBA. (B) Mesoscale assay of HIF1a protein over time in caco-2 cells treated with 5 mM MBA compared to veh. (C) HIF1a and HIF target (BNIP3) protein in caco-2 cells exposed to veh (HBSS+), […] or 5 mM MBA. Data are presented as mean+S.E.M, *p<0.05, **p<0.01, ***p<0.001.
as §1, §2

[4] = system: HIF target genes in T84 cells; experiment: real-time PCR of HIF target genes BNIP3 and CAIX in T84 cells; format: cell-based; details: 16h
Protocol: (A) Exposure of T84 cells to Veh, BA or MBA (5 mM, 16 h) induced HIF target gene expression of CAIX and BNIP3. […] (C) Non-targeting control and T84 HIF1b depleted cells were analyzed for HIF1b expression by western blotting, shown with a representative blot. Quantification of HIF1b decrease was performed using ACTB-normalized densitometry. qPCR data was analyzed by One-way ANOVA with Bonferroni for post hoc correction and presented as mean±S.E.M, **p<0.01, ***p<0.001, ****p<0.0001 of three independent experiments.
Following these findings, we then explored if the MBA-induced stabilization of HIF was reflected in the transcriptional regulation of target genes. We utilized real-time PCR to study the influence of MBA mediated HIF stabilization in the induction of established HIF targets, BNIP3 (cell survival) and CAIX (pH regulation).
Furthermore, to confirm MBA-induced HIF transcriptional activity, we quantified the induction of BNIP3 and CAIX by BA or MBA (5 mM, 16h) in lentiviral shRNA-mediated knockdown of HIF1β relative to non-targeting shRNA controls. […] These findings confirm that through MBA exposure, HIF is stabilized and it is transcriptionally active.

HIF regulated targets = experiment: intraperitoneal injection in C57BL/6 mice, HIF regulated targets (EPO, GLUT1); format: in vivo; details: MBA 80 mg/kg, 24h
Protocol: Erythropoietin (EPO) is regulated by HIF stabilization. (A) EPO protein in blood serum was assessed by mesoscale assay (n=6-8). qPCR mRNA expression of HIF target mGLUT1 in kidney (B) and colon tissue (C) (n=3-8). Data analyzed by One-way ANOVA with Tukey for post hoc correction and presented as mean±S.E.M of two independent experiments, *p<0.05, **p<0.01, ***p<0.001, ****p<0.0001 […]
At 24 h, mice were sacrificed followed by exsanguination, extraction of right kidney and distal colon for analysis of HIF stabilization and HIF target gene expression. SHBA induces HIF regulated targets in vivo. Erythropoietin (EPO) is regulated by HIF stabilization. (A) EPO protein in blood serum was assessed by mesoscale assay (n=6-8). (B) qPCR mRNA expression of HIF target mGLUT1 in colon tissue (n=3-4). Data are presented as mean±S.E.M of two independent experiments, *p<0.05, **p<0.01.
A typical physiologic response to hypoxia is the increase in red blood cell production. Naturally, HIF is in charge of this response by regulating cell-type specific gene expression that leads to increased levels of the hormone erythropoietin (EPO).[10] […] We lastly explored the in-vivo effects of MBA in mediating induction of genes tightly regulated by HIF. […] After 24h of treatment, they were sacrificed and quickly exsanguinated to measure EPO levels in serum. […] Furthermore, we studied the induction of GLUT1, another classic HIF target responsible for the transport of various monosaccharides. Kidney and colon tissue were analyzed by real-time PCR to compare BA and MBA head-to-head. […] These findings support the ability of MBA to stabilize HIF in-vivo leading to the induction of classic target genes and transcription of a tightly regulated protein EPO.

PHD2181-402 [5] = biological target: T1, PHD2181-402; experiment: WaterLOGSY 1D NMR binding to PHD2181-402; details: 10 mM SCFA, 25 μM PHD2181-402
From the text: Protons attached to C4 were selectively inverted and acted as source of magnetization transfer. […] (G) Protons attached to C2 were selectively inverted.
Measurements were repeated 3 times.
This method enables sensitive and robust detection of binding (dissociation constants as weak as μM to low mM) based on the magnetization transfer between water molecules, proteins, and ligands of interest in close proximity via dipolar proton-proton cross-relaxation (nuclear Overhauser effect, NOE). […] Binding and non-binding ligands can be distinguished in a WaterLOGSY spectrum via their opposite signs in relation to water for their corresponding peaks.
This technique allows for mapping of the ligand pharmacophore by monitoring the response of individual protons to an increase of ROEs contribution to the overall cross relaxation rate.

[6] = calculated from measured IC50 accounting for substrate conversion, n = 4, error: SEM, read-out: True IC50 for PHD2181-402

T1 sequence (Q9GZT9 181-402): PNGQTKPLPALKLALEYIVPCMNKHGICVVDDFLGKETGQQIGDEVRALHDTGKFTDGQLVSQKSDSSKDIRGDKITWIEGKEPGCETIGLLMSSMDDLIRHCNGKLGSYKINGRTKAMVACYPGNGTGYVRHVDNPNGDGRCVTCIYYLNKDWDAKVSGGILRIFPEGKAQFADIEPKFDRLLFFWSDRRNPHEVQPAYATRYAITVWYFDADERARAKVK

SMILES: CC(O)CC(=O)O (centres unmarked) [3-Hydroxybutyrate]
IC50 (PHD2181-402 [1]; [6]): 14 ± 1 mM

SMILES: COC(=O)CNC(=O)C(=O)OC [DMOG, dimethyloxalylglycine, reference compound]
IC50 (PHDs): 0.00289 to 4 mM
IC50 (PHD2181-402 [1]; 1 μM PHD2181-402, 10 μM 2-OG, 10-minute reaction, n=5-12, error: SEM, read-out: true half maximal inhibitory concentration (IC50) for PHD2181-402): 1.9 ± 0.5 mM

SMILES: O=C(O)CNC(=O)c1c(O)c2ccccc2n(Cc2ccccc2)c1=O [IOX2, reference compound]
colon tissue 2-OG levels after antibiotics [2]: rescued
mRNA expression of HIF-1α targets Bnip3, Bnip3l, Glu1 after antibiotics [2]: rescued
2-OG levels compared to control [3]: to lesser extent than butyrate

SMILES: CC(C)(C)OC(=O)c1ccc(-n2[nH]cc(-n3ccnn3)c2=O)nc1 [IOX4, reference compound]
BNIP3 immunoblot over time (HIF1α in caco-2 cells): supported active HIF1α transcription
HIF1α stabilization over time (immunoblot) (HIF1α in T84 cells; T84 cells): no longer effective at the 72h timepoint

SMILES: O=C(O)CCCS [MBA, 4-Mercaptobutyrate]
HIF target gene induction compared to BA ([4]; T84, 5 mM): more potent than BA; also recorded: more prominent induction of HIF target genes compared to BA
induction of HIF target genes BNIP3 and CAIX ([4]; T84, 5 mM): significant induction
induction of BNIP3 and CAIX in cells lacking HIF1β ([4]; T84 HIF1β shRNA knockdown, 5 mM): complete loss of induction
BNIP3 immunoblot over time (HIF1α in caco-2 cells): supported active HIF1α transcription
HIF1α immunoblot compared with IOX4 (HIF1α in caco-2 cells; caco-2, 5 mM MBA vs IOX4 (10 μM)): at least as much as IOX4
HIF1α immunoblot compared with butyrate (HIF1α in caco-2 cells; caco-2, equimolar concentration (5 mM)): exceeding the capabilities of butyrate
HIF1α relative concentration over time (MSD assay) (HIF1α in caco-2 cells; caco-2 cell lysates, 5 mM, up to 72h): rapidly stabilized (3h)
HIF1α relative concentration (MSD assay) (HIF1α in caco-2 cells; caco-2 lysates, 5 mM, compared with IOX4): exceeded HIF stabilization in caco-2 compared to the potent IOX4 PHD2 inhibitor
GLUT1 mRNA in colon tissue (HIF regulated targets; IP, BA 73 mg/kg): significantly increased in colon tissue
GLUT1 mRNA in kidney (HIF regulated targets; IP, BA 73 mg/kg): induction of GLUT1 in kidney
EPO concentration in serum (HIF regulated targets; one IP injection, compared to vehicle, DMOG and BA): significantly higher concentration of EPO
HIF1α immunoblot compared with butyrate (HIF1α in T84 cells; T84, equimolar concentration (5 mM)): exceeding the capabilities of butyrate
HIF1α stabilization over time (immunoblot) (HIF1α in T84 cells; T84 cells): observed clearly up to 72h
dose response of HIF1α accumulation (HIF1α in T84 cells; T84 cells, decreasing concentrations, 6 h): can stabilize HIF at the low millimolar range

SMILES: CC(=O)O [acetate, Acetic acid, reference compound]
binding to PHD2181-402 by WaterLOGSY (PHD2181-402 [5]): no binding
fold less effective at inhibiting PHD2181-402 than butyrate (PHD2181-402 [1]): ~10 fold

Results, then the compound that gave them:

IC50 (PHD2181-402 [1]; [6]): 77 ± 6 mM
SMILES: CCC(CC)C(=O)O [2-Ethylbutyrate]

binding to PHD2181-402 by WaterLOGSY (PHD2181-402 [5]): no binding
fold less effective at inhibiting PHD2181-402 than butyrate (PHD2181-402 [1]): ~10 fold
SMILES: CCC(=O)O [propionate, propionic acid, reference compound]

binding to PHD2181-402 by WaterLOGSY (PHD2181-402 [5]): no binding
fold less effective at inhibiting PHD2181-402 than butyrate (PHD2181-402 [1]): ~3 fold
SMILES: CCCCC(=O)O [valerate, valeric acid, reference compound]
